# Assay results published in US7442763B2, “Compositions for treating abnormalities in glomerular filtration, patent ductus arteriosus and osteoporosis” (Hopital Sainte-Justine, priority 1999, dated 2008).
# Square brackets hold non-standard residues; d marks the D form. Ends that are not written are not given here. Bip = N[C@@H](Cc1ccc(-c2ccccc2)cc1)C(=O)O; Dip = N[C@H](C(=O)O)C(c1ccccc1)c1ccccc1; hPhe = N[C@@H](CCc1ccccc1)C(=O)O
# How the values were obtained:
# saphenous vein of piglet = assay: PGE2-induced dilation of saphenous vein rings, organ bath assay; set-up: species or system Yorkshire piglets; conditions: 1 μM peptides, 1 μM PGE2; rings pre-constricted with U46619; average of 2-8 experiments
# Protocol: Animals. Yorkshire piglets (2-4 days old) were used in this study, according to a protocol approved by the Animal Care Committee of the Research Centre of Ste-Justine Hospital. Briefly, animals were anesthetized with 1.5% halothane and the lower external saphenous veins removed and placed in cold Krebs buffer (pH 7.4) of the following composition (mM): NaCl 120, KCl 4.5, CaCl2 2.5, MgSO4 1.0, NaHCO3 27, KH2PO4 1.0, glucose 10, to which 1.5 U/ml heparin was added.
# Organ bath assay. The saphenous veins were cleaned of extraneous tissue and cut into 4 mm rings that were placed in individual jacketed organ baths (15 ml; Radnoti Glass, Monrovia, Calif.) containing Krebs buffer and maintained at 37° C. The solution was bubbled with a mixture of 95% O2-5% CO2. In each experiment, 8 rings were used (4 from each saphenous vein) and were equilibrated for 60 min under 2.0 gr passive tension, with frequent washing and tension adjustment. Tension was measured by force-displacement transducers and was recorded on a computerized data acquisition system using the Work Bench software (both from Kent Scientific, Litchfield, Conn.).
# Experimental protocol. In a first set of experiments, the relative distribution of dilatory EP receptor subtypes was ascertained using a combination of EP receptor agonists and antagonists. The vasodilatory response of the lower external saphenous veins to PGE2 appears to result from the stimulation of 30% EP2 and 70% EP4. Tissues were initially challenged with 2×10^−7 U46619 which induced a 1.5 to 2.0 gr increase in tension. […] When the response to U46619 reached a steady state, agents were added. When no response to the agents were observed, a period of 10 minutes was allowed to insure proper distribution of the agents in the tissue. Dose-response curves to PGE2 (10^−10−10^−6 M) were then obtained in the presence of absence of each of the tested drugs.
# The results are average of 2-8 experiments. The results are tabulated as percent reversal of 1 μM PGE2-induced […] in the presence of 1 μM peptides. The peptides shown here contain productive and effective substitutions in the parent peptide PHG 213 (SEQ ID NO:1)
# EP4 receptor [1] = assay: Basal and PGE2-stimulated cAMP levels in EP4/293 cells; assay type: cell-based, Human; conditions: forskolin 100 μM added for 15 min, 100 μM IBMX
# Description: (§1) Data are averages of four replicates.
# EP4 receptor [2] = target: EP4 receptor (Homo sapiens, UniProt P35408, P4S); assay: as above; assay type: cell-based
# Sequence of EP4 receptor (Homo sapiens, UniProt P35408, P4S) (P35408 whole entry P4S): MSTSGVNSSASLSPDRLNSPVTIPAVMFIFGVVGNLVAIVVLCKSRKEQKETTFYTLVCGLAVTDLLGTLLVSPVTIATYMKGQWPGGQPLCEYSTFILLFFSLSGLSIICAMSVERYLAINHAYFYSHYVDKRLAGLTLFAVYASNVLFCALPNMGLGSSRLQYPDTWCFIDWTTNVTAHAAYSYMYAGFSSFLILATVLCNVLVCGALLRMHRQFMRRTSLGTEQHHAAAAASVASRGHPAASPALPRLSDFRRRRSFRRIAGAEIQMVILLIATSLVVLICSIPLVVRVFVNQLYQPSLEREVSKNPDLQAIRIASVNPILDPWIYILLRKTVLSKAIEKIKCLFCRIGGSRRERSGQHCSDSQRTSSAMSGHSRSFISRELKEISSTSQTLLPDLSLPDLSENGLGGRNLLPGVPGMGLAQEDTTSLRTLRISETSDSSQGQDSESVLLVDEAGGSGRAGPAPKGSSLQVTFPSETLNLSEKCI
# Description: as §1
# EP4 receptor [3] = assay: Ocular perfusion pressure in porcine eye model (ex vivo vasomotricity of choroid); set-up: species or system newborn pig; conditions: PHG213 infused at 100 μM after U46619 1 μM and PGE2 1 μM
# Description: In order to test the efficacy of PHG213 (SEQ ID NO: 1) on EP4 receptor function, an ex vivo assay of vasomotricity of porcine choroid was used. The dilatory response to PGE2 in this vascular bed was previously shoen to be mediated by EP4 receptor (Abran, D. et al. 1997. Am. J. Physiol. 272: R995-1001).
# Method: The method as described in detail by Abran et al. (1997) was followed exactly. A vortex vein from the eye of a newborn pig was catheterized with a 27-gauge needle and perfused with Kreb's solution until perfusion pressure was stable. The vasculature was first constricted with a thromboxane mimetic, U46619 (1 μM), and then PGE2 was infused at 1 μM. Once the reversal of constriction reached a plateau, then PHG213 was infused at 100 μM and the perfusion pressure was recorded.
# Positive values of perfusion pressure indicate constriction whereas negative values indicate dilation of the vasculature. PGE2 reversed the constriction produced by U46619. […] Since it is known that the dilatory effects of PGE2 are predominantly mediated by EP4 receptor in choroid of the newborn pig, PHG 213 antagonized the actions of EP4 receptor and blocked the dilation produced by this receptor.
# normal rats = assay: Glomerular filtration rate and urinary volume in normal rats; assay type: in vivo, Sprague-Dawley adult rats; conditions: i.v. infusion 6 μmol/Kg/h
# Protocol: (§2) Method: Sprague-Dawley adult rats (˜250 g) were anesthetized with 50 mg/kg pentobarbitone. Left jugular vein (for infusion) and left carotid artery (for measuring blood pressure) were catheterized and another catheter was placed at the tip of the bladder for collecting urine. Infusion of [^3H]-inulin in saline (2 μCi/Kg/h) was started and continued for 2 h to stabilize the system. Urine collection was exactly for 20 min and at 10 min mark, 0.1 ml of blood was withdrawn into heparinized tubes. Blood was centrifuged and radioactivity in plasma was counted. After 10 min and 30 min (30 min and 60 min since the start of the previous urine collection), the process was repeated. The antagonist, PHG 213, was infused in saline i.v. at 6 μmol/Kg/h for one hour before the start of first urine collection. Urinary volume (UV) is calculated and expressed as μl of urine/h corrected for the weight of the animal. GFR was calculated as the ratio of urinary […] corrected for the volume of the urine and the weight of the animal.
# diabetic rats = assay: Glomerular filtration rate and urinary volume in streptozotocin-induced diabetic rats; assay type: in vivo, Sprague-Dawley adult rats; conditions: systemic infusion
# Protocol: as §2
# Method: Sprague-Dawley adult rats (˜250 g) were injected i.p. with streptozotocin (45-50 mg/Kg) and two days later, the urine was tested for glucose and proteinuria. Two weeks later, the rats that tested positive for both markers were chosen to test the effects of PHG 213 (SEQ ID NO:1) on GFR and UV using a method described above.
# [4] = system: ductus arteriosus of fetal sheep; assay: Ductus arteriosus diameter in fetal sheep by Doppler echocardiography; assay type: in vivo; conditions: 2 mg bolus followed by 1 mg/Kg infusion over 15 min
# Protocol: Pregnant ewes (129-140 days of gestation) was anesthetized with ketamine (30 mg/Kg i.v.), a caesarian section was performed and the fetus exteriorized. To mimic fetal respiratory conditions, the head of the fetus was submerged in a glove filled with saline. Femoral and jugular veins were catheterized for systemic blood pressure measurements and drug infusions respectively. Ducuts arteriosus (DA) diameter was measured using Doppler echocardiography as described before (Teyssier, G. et al. 1989. J. Cardiovascular Technol. 8: 259-266). Echocardiographic measurements were performed with an Acuson 128 XP/10C real time ultrasound imaging system using 7.5 or 5-MHz transducers duplexed with a range-gated Doppler. Doppler signals were filtered by a 100-Hz high-pass filter. The DA was visualized through a left second intercostal parasternal approach. After the drugs were injected, measurements of DA diameter were repeated 3 times at 5 min intervals for the next 20-25 min.
# DA was unchanged for 40 min during the stabilization period. […] PHG213, a peptide antagonist of EP4 receptor, blocked the dilatory action of the receptor which is responsible for maintaining the ductus open in the fetus.
# [5] = system: human fetal spleen cells in coculture with fixed SaOS-2 cells; assay: Osteoclastogenesis (TRAP+ cells) in coculture of human fetal spleen cells and fixed SaOS-2 cells; assay type: cell-based; conditions: PHG213 100 μM, three days; n=10
# Protocol: Method: SaOs-2 cells (immortalized cell line of human osteoblasts) were grown for four days in 24-well plates in alpha-MEM medium containing 10% fetal calf serum , vitamin D3 (10^−7). Confluent SaOs-2 cells were fixed in 1% paraformaldehyde M) and dexamethasone (10^−8 M in phosphate-buffered sline (PBS) for 8 min. The cells were rinsed with PBS 4 times and alpha-MEM containing 10% fetal calf serum and vitamin D3 (10^−7 M) was added.
# Two days before, spleens from human abortuses were cut into small pieces and triturated several times release the cells. The spleen cells were cultured in alpha-MEM containing 10% fetal calf serum for 2 days. Spleen cells were trypsinized, rinsed once in PBS and counted using a coulter counter. An aliquot of spleen cells (10^5 cells/well) were placed over the monolayer of fixed SaOs-2 cells for 2 h, after which PHG213 (100 μM) was added. Three days later, the cells were fixed in 4% paraformaldehyde in PBS, rinsed with water and tartarat-resistant […] (TRAP) was stained using a commercial kit (Sigma, St. Louis, Mo.). TRAP-positive cells were viewed under a microscope and counted.
compound,measurement,setting,value
1 (IFTSYECL; Peptide inhibitor of prostaglandin E2 receptor subtype EP4) [compound 1],% blockade of PGE2 induced vasodilation,saphenous vein of piglet,50.0%
2 (IFASYECL; Peptide inhibitor of prostaglandin E2 receptor subtype EP4) [compound 2],% blockade of PGE2 induced vasodilation,saphenous vein of piglet,35.0%
3 (IFTSAECL; Peptide inhibitor of prostaglandin E2 receptor subtype EP4) [compound 3],% blockade of PGE2 induced vasodilation,saphenous vein of piglet,20.0%
4 (IFTSYEAL; Peptide inhibitor of prostaglandin E2 receptor subtype EP4) [compound 4],% blockade of PGE2 induced vasodilation,saphenous vein of piglet,60.0%
5 (ILASYECL; Peptide inhibitor of prostaglandin E2 receptor subtype EP4) [compound 5],% blockade of PGE2 induced vasodilation,saphenous vein of piglet,60.0%
6 (IFTSYDCL; Peptide inhibitor of prostaglandin E2 receptor subtype EP4) [compound 6],% blockade of PGE2 induced vasodilation,saphenous vein of piglet,30.0%
7 ([Bip]TSYEAL) [compound 7],% blockade of PGE2 induced vasodilation,saphenous vein of piglet,65.5%
8 ([Dip]TSYEAL) [compound 8],% blockade of PGE2 induced vasodilation,saphenous vein of piglet,64.5%
9 ([hPhe]TSYEAL) [compound 9],% blockade of PGE2 induced vasodilation,saphenous vein of piglet,34.0%
"C=C[C@@]1(C)CC(=O)[C@]2(O)[C@@]3(C)[C@@H](O)CCC(C)(C)[C@@H]3[C@H](O)[C@H](OC(C)=O)[C@@]2(C)O1 [FSK, forskolin, reference compound]",CAMP (pmol/ml/10^5 cells),EP4 receptor [1],>270 pmol/ml/10^5 cells
"CCCCC[C@H](O)/C=C/[C@H]1[C@H](O)CC(=O)[C@@H]1C/C=C\CCCC(=O)O [PGE2, Prostaglandin E2, reference compound]",CAMP (pmol/ml/10^5 cells),"EP4 receptor [2]; PGE2 1 μM added for 15 min, 100 μM IBMX",>270 pmol/ml/10^5 cells
"PHG213: peptide antagonist of EP4 receptor, parent peptide, D-amino acids (IFTSYECL; also: D-amino acids, places not given here)",% inhibition of basal cAMP levels,EP4 receptor [2]; PHG213 100 μM with 100 μM IBMX for 1 h,60.7%
same,CAMP (pmol/ml/10^5 cells),"EP4 receptor [2]; basal, PHG213 100 μM with 100 μM IBMX for 1 h, vehicle 69.9",27.5 pmol/ml/10^5 cells
same,Block of the dilatory effect of PGE2 on ocular perfusion pressure,EP4 receptor [3],blocked this dilatory effect of PGE2 completely
same,Glomerular filtration rate (GFR) increase,normal rats,157%
same,Mean blood pressure,normal rats,not significantly altered
same,Urinary flow rate (UV) increase,normal rats,2.3 fold
same,GFR,diabetic rats,increased
same,Mean blood pressure,diabetic rats,not significantly altered
same,UV,diabetic rats,increased
same,Ductus arteriosus (DA) diameter,[4],started to constrict and continued for another 15 min and was irreversible
same,Reduction of number of TRAP-positive cells (osteoclasts),[5],half
